Tests used:
[1] = Stability in stock solutions under typical storage conditions; assay type: physicochemical; details: stock solution in methanol (SH-1242 1 mg/mL, IS 500 ng/mL), n = 3
Method: (§1) Stock solutions of SH-1242 and IS were prepared at the concentrations of 1 mg/mL and 500 ng/mL in methanol, respectively. A serial dilution of the SH-1242 stock solution with methanol was carried out to obtain a set of SH-1242 standard solutions, and 5 µL aliquots of these standard solutions were added to 45 µL of blank plasma to prepare SH-1242 calibration standards at concentrations of 1, 2, 5, 10, 20, 50, 100, 200, 500, and 1000 ng/mL for rat plasma and 2, 5, 10, 20, 50, 100, 200, 500, and 1000 ng/mL for mouse plasma. Using similar dilution protocol, a batch of QC samples for SH-1242 was prepared at concentrations of 1 (LLOQ), 2 (low QC), 40 (mid QC), and 800 ng/mL (high QC) for rat plasma and 2 (LLOQ), 4 (low QC), 40 (mid QC), and 800 ng/mL (high QC) for mouse plasma. Samples were then processed according to the procedure described in Section 3.5.
(§2) The stability of SH-1242 and IS was evaluated under various storage and handling conditions. Stock solutions of SH-1242 and IS at concentrations of 1 mg/mL and 500 ng/mL, respectively, were stored at room temperature (25 °C) for 6 h, under refrigerated conditions (4 °C) for 24 h or 2 weeks, or under two different frozen conditions (−20 °C and −80 °C) for 2 weeks. Solutions of SH-1242 were diluted to 50 ng/mL prior to analysis. In addition, QC samples at three different concentrations (2 or 4 ng/mL, 40 ng/mL, and 800 ng/mL) were prepared and processed. The samples were then placed in various handling conditions (i.e., standing in an autosampler (4 °C for 3 days) or under bench-top condition (25 °C for 24 h), or subjected to three freeze-thaw cycles, or long-term refrigeration (4 °C for 2 weeks)). Mean peak areas of stock solutions were compared with those of fresh stock solutions. For QC samples, the results were compared with nominal concentrations. In this study, analytes were considered stable under test conditions when accuracies at each concentration were within 15% of nominal concentration.

[2] = parameters: method as in PMID 11320671; details: rats; cited from earlier work
[3] = Stability of QC samples in rat plasma under handling and storage conditions; assay type: in vitro ADME; details: n = 3; for Accuracy (RE%), freeze-thaw stability / Mean concentration, freeze-thaw stability: 3 freeze-thaw cycles; for Accuracy (RE%), long term stability / Mean concentration, long term stability: 4 °C for 2 weeks; for Accuracy (RE%), autosampler stability / Mean concentration, autosampler stability: processed sample, 4 °C for 3 days; for Accuracy (RE%), benchtop stability / Mean concentration, benchtop stability: room temperature (25 °C) for 24 h
Method: as §1, §2

[4] = system: hypoxia-mediated angiogenesis; parameters: method as in PMID 24875598; details: in vitro model of hypoxia-mediated angiogenesis; cited from earlier work
[5] = Pharmacokinetic study after single intravenous administration to rats; assay type: in vivo; details: male, Sprague-Dawley, rat, plasma, single intravenous 0.1 mg/kg, n = 4, mean ± S.D.
Method: (§3) To test the applicability of the current assay to pharmacokinetic studies, in preclinical animal species, male Sprague-Dawley rats (weighing 250–270 g) or ICR mice (weighing 18–20 g) were used. Prior to the experiment, animals fasted for 12 h with free access to water. SH-1242 was dissolved in a dosing vehicle consisting of dimethyl sulfoxide, PEG400 (Sigma-Aldrich, St. Louis, MO, USA), and normal saline in a ratio of 1:6:3 (v/v/v%), and intravenously bolus-injected to the right femoral vein at 2 mL/kg for rats or to the tail vein at 5 mL/kg for mice. In this study, the intravenous dose of SH-1242 was set at 0.1 mg/kg for both species. Blood samples (approximately 150 µL each) were collected in heparinized tubes via the right femoral artery at 2, 5, 15, 30, 60, 90, 120, 180, 240, 360, and 480 min after the administration to rats (n = 4) and via the retro-orbital plexus at 2, 5, 15, 30, 60, or 120 min after the administration to mice (n = 3 for each time point). For the mouse study, a blood sample was obtained once from each animal, and the animal was sacrificed after collection. Plasma was obtained by centrifuging blood samples at 16,100 g for 5 min at 4 °C and then processed, as described in Section 3.5. The plasma concentration versus time data was analyzed using the non-compartmental method in the WinNonlin software (WinNonlin Professional 5.0.1.; Pharsight, Mountain View, CA, USA) to calculate essential kinetic parameters, such as terminal phase half-life (T1/2), systemic clearance (CL), and steady-state volume of distribution (Vss).

[6] = Stability of QC samples in mouse plasma under handling and storage conditions; assay type: in vitro ADME; details: n = 3; for Accuracy (RE%), freeze-thaw stability / Mean concentration, freeze-thaw stability: 3 freeze-thaw cycles; for Accuracy (RE%), long term stability / Mean concentration, long term stability: 4 °C for 2 weeks; for Accuracy (RE%), autosampler stability / Mean concentration, autosampler stability: processed sample, 4 °C for 3 days; for Accuracy (RE%), benchtop stability / Mean concentration, benchtop stability: room temperature (25 °C) for 24 h
Method: as §1, §2

[7] = Pharmacokinetic study after single intravenous administration to mice; assay type: in vivo; details: male, ICR, plasma, single intravenous 0.1 mg/kg, representative (one time point per mouse)
Method: as §3

In the case of `COc1cc2c(cc1OC)[C@@H]1C(=O)c3ccc4c(c3O[C@@H]1CO2)C=CC(C)(C)O4` [deguelin, reference compound], the “Relative conc. (%) vs initial” value ([1]; Refrigerated (4 °C, 2 Weeks)) is reported as 92.3%, the “Relative conc. (%) vs initial” value ([1]; Refrigerated (4 °C, 24 h)) is reported as 105% and the “Relative conc. (%) vs initial” value ([1]; Refrigerated (−20 °C, 2 Weeks)) is reported as 91.4%. For the same compound, the “Relative conc. (%) vs initial” value ([1]; Refrigerated (−80 °C, 2 Weeks)) was 86.2%, the “Relative conc. (%) vs initial” value ([1]; Room Temp. (6 h)) was 101% and the CL [2] was 72.7 mL/min/kg. The Vss [2] was 30.5 L/kg.

With `COc1ccc(CC(=O)c2ccc3c(c2OC)C=CC(C)(C)O3)cc1OC` [SH-1242, 2-(3,4-dimethoxyphenyl)-1-(5-methoxy-2,2-dimethyl-2H-chromen-6-yl)ethanone] the “Accuracy (RE%), freeze-thaw stability” value ([3]; HQC theoretical 800 ng/mL) was “–2.50%”, the “Mean concentration, freeze-thaw stability” value ([3]; HQC theoretical 800 ng/mL) was 780 ng/mL and the “Accuracy (RE%), freeze-thaw stability” value ([3]; LQC theoretical 2 ng/mL) was “–7.83%”. The “Mean concentration, freeze-thaw stability” value ([3]; LQC theoretical 2 ng/mL) was 1.84 ng/mL, the “Accuracy (RE%), freeze-thaw stability” value ([3]; MQC theoretical 40 ng/mL) was 4.92% and the “Mean concentration, freeze-thaw stability” value ([3]; MQC theoretical 40 ng/mL) was 41.97 ng/mL. For the same compound, the “Accuracy (RE%), long term stability” value ([3]; HQC theoretical 800 ng/mL) was “–8.71%”, the “Mean concentration, long term stability” value ([3]; HQC theoretical 800 ng/mL) was 730 ng/mL and the “Accuracy (RE%), long term stability” value ([3]; LQC theoretical 2 ng/mL) was 0.833%. For the same compound, the “Mean concentration, long term stability” value ([3]; LQC theoretical 2 ng/mL) was 2.02 ng/mL, the “Accuracy (RE%), long term stability” value ([3]; MQC theoretical 40 ng/mL) was “–6.75%” and the “Mean concentration, long term stability” value ([3]; MQC theoretical 40 ng/mL) was 37.3 ng/mL. The “Accuracy (RE%), autosampler stability” value ([3]; HQC theoretical 800 ng/mL) was “–3.33%”, the “Mean concentration, autosampler stability” value ([3]; HQC theoretical 800 ng/mL) was 773 ng/mL and the “Accuracy (RE%), autosampler stability” value ([3]; LQC theoretical 2 ng/mL) was “–0.167%”. The “Mean concentration, autosampler stability” value ([3]; LQC theoretical 2 ng/mL) was 2.00 ng/mL, the “Accuracy (RE%), autosampler stability” value ([3]; MQC theoretical 40 ng/mL) was “–2.75%” and the “Mean concentration, autosampler stability” value ([3]; MQC theoretical 40 ng/mL) was 38.9 ng/mL. For the same compound, the “Accuracy (RE%), benchtop stability” value ([3]; HQC theoretical 800 ng/mL) was “–7.88%”, the “Mean concentration, benchtop stability” value ([3]; HQC theoretical 800 ng/mL) was 737 ng/mL and the “Accuracy (RE%), benchtop stability” value ([3]; LQC theoretical 2 ng/mL) was “–6.33%”. For the same compound, the “Mean concentration, benchtop stability” value ([3]; LQC theoretical 2 ng/mL) was 1.87 ng/mL, the “Accuracy (RE%), benchtop stability” value ([3]; MQC theoretical 40 ng/mL) was “–6.83%” and the “Mean concentration, benchtop stability” value ([3]; MQC theoretical 40 ng/mL) was 37.3 ng/mL. For the same compound, the “Relative conc. (%) vs initial” value ([1]; Refrigerated (4 °C, 2 Weeks)) was 85.2%, the “Relative conc. (%) vs initial” value ([1]; Refrigerated (4 °C, 24 h)) was 105% and the “Relative conc. (%) vs initial” value ([1]; Refrigerated (−20 °C, 2 Weeks)) was 89.1%. For the same compound, the “Relative conc. (%) vs initial” value ([1]; Refrigerated (−80 °C, 2 Weeks)) was 90.8%, the “Relative conc. (%) vs initial” value ([1]; Room Temp. (6 h)) was 109% and the “effective concentration (antiangiogenic activity)” value [4] was ~10 nM. For the same compound, the AUC(0-inf) [5] was 55.8 ng·h/mL, the MRT [5] was 2.48 h and the clearance [5] was 30.5 ± 4.49 mL/min/kg. The half-life [5] was 2.43 ± 0.983 h, the Vd ([5]; read-out: Vss) was 4.38 ± 0.716 L/kg and the “Accuracy (RE%), freeze-thaw stability” value ([6]; HQC theoretical 800 ng/mL) was 5.00%. For the same compound, the “Mean concentration, freeze-thaw stability” value ([6]; HQC theoretical 800 ng/mL) was 840 ng/mL, the “Accuracy (RE%), freeze-thaw stability” value ([6]; LQC theoretical 4 ng/mL) was 11.3% and the “Mean concentration, freeze-thaw stability” value ([6]; LQC theoretical 4 ng/mL) was 4.45 ng/mL. For the same compound, the “Accuracy (RE%), freeze-thaw stability” value ([6]; MQC theoretical 40 ng/mL) was 6.00%, the “Mean concentration, freeze-thaw stability” value ([6]; MQC theoretical 40 ng/mL) was 42.4 ng/mL and the “Accuracy (RE%), long term stability” value ([6]; HQC theoretical 800 ng/mL) was 8.08%. For the same compound, the “Mean concentration, long term stability” value ([6]; HQC theoretical 800 ng/mL) was 865 ng/mL, the “Accuracy (RE%), long term stability” value ([6]; LQC theoretical 4 ng/mL) was “–4.08%” and the “Mean concentration, long term stability” value ([6]; LQC theoretical 4 ng/mL) was 3.84 ng/mL. The “Accuracy (RE%), long term stability” value ([6]; MQC theoretical 40 ng/mL) was 12.0%, the “Mean concentration, long term stability” value ([6]; MQC theoretical 40 ng/mL) was 44.8 ng/mL and the “Accuracy (RE%), autosampler stability” value ([6]; HQC theoretical 800 ng/mL) was 7.83%. The “Mean concentration, autosampler stability” value ([6]; HQC theoretical 800 ng/mL) was 863 ng/mL, the “Accuracy (RE%), autosampler stability” value ([6]; LQC theoretical 4 ng/mL) was 4.67% and the “Mean concentration, autosampler stability” value ([6]; LQC theoretical 4 ng/mL) was 4.19 ng/mL. The “Accuracy (RE%), autosampler stability” value ([6]; MQC theoretical 40 ng/mL) was 6.50%, the “Mean concentration, autosampler stability” value ([6]; MQC theoretical 40 ng/mL) was 42.6 ng/mL and the “Accuracy (RE%), benchtop stability” value ([6]; HQC theoretical 800 ng/mL) was 1.25%. The “Mean concentration, benchtop stability” value ([6]; HQC theoretical 800 ng/mL) was 810 ng/mL, the “Accuracy (RE%), benchtop stability” value ([6]; LQC theoretical 4 ng/mL) was 5.25% and the “Mean concentration, benchtop stability” value ([6]; LQC theoretical 4 ng/mL) was 4.21 ng/mL. The “Accuracy (RE%), benchtop stability” value ([6]; MQC theoretical 40 ng/mL) was 4.25%, the “Mean concentration, benchtop stability” value ([6]; MQC theoretical 40 ng/mL) was 41.7 ng/mL and the AUC(0-inf) [7] was 24 ng·h/mL. The MRT [7] was 0.493 h, the clearance [7] was 69.4 mL/min/kg and the half-life [7] was 0.438 h. For the same compound, the Vd ([7]; read-out: Vss) was 2.06 L/kg.
